{
  "source": "paper PMC11268729",
  "about": "(Journal of hepatology, 2023)",
  "key": {"72.3-derived HLOs": {"system": "72.3-derived HLOs", "assay": "Morphological cell profiling", "assay_type": "cell-based, human", "settings": "for phenotypic cluster (UMAP/HDBScan): cells treated at respective IC50, 72.3-derived HLOs"}, "PaDLOCs [1]": {"system": "PaDLOCs", "assay": "Metabolic turnover of CYP substrates in PaDLOCs", "settings": "PaDLOCs vs plate-cultured intact HLOs; slightly lower rates than PHHs"}, "PaDLOCs [2]": {"system": "PaDLOCs", "assay": "PaDLOC", "assay_type": "cell-based, human", "settings": "for albumin production: across 7 days; for ALT or AST release: monotherapy 500 nM"}, "PHH PaDLOCs": {"system": "PHH PaDLOCs", "assay": "PHH liver-chip ALT/AST release and albumin production", "assay_type": "cell-based, human", "settings": "PHH on chip; APAP and FIAU"}, "PaDLOCs [3]": {"system": "PaDLOCs", "assay": "PaDLOC confocal imaging", "assay_type": "cell-based, human", "settings": "for UMAP morphological clustering: PaDLOCs, CellProfiler cell-level features; for morphological deviation: monotherapy 500 nM"}, "dispersed HLOs": {"system": "dispersed HLOs", "assay": "Dispersed HLOs in 384-well plates, cell viability counts by high-content imaging", "assay_type": "cell-based, human", "settings": "for cytotoxicity: monotherapies up to concentration of 100 μM, 120 hrs"}, "patients": {"system": "patients", "settings": "monotherapy, two clinical trials for HBV; cited from earlier work"}, "[4]": {"settings": "in vivo; cited from earlier work"}, "PaDLOCs [5]": {"system": "PaDLOCs", "assay": "scRNA-seq differential expression in hepatocytes of drug-treated PaDLOCs", "assay_type": "cell-based, human", "settings": "fialuridine 10 μM, tenofovir 500 nM; for KCNQ10T1 expression / RPS10 expression: compared to control; for DGAT1 expression: tenofovir-inarigivir 250 + 250 nM"}, "[6]": {"settings": "single agents 500 nM, combination 250 + 250 nM"}},
  "note": "Entries after “also recorded” stand apart in the source; their conditions may differ.",
  "data": [
    {"smiles": "Oc1ncnc2[nH]ncc12", "note": "[allopurinol]", "values": [
      {"measurement": "phenotypic cluster (UMAP/HDBScan)", "setting": "72.3-derived HLOs", "value": "Cluster α; also recorded: Cluster γ"}
    ]},
    {"smiles": "CC(=O)Nc1ccc(O)cc1", "note": "[APAP, acetaminophen]", "values": [
      {"measurement": "metabolic turnover rate", "setting": "PaDLOCs [1]", "value": "increased rates compared to plate-cultured intact HLOs"},
      {"measurement": "albumin production", "setting": "PaDLOCs [2]; APAP 100 μM, FIAU 10 μM", "value": "diminished"},
      {"measurement": "ALT/AST release and reduced albumin production", "setting": "PHH PaDLOCs", "value": "not significant"},
      {"measurement": "UMAP morphological clustering", "setting": "PaDLOCs [3]", "value": "unique cluster"}
    ]},
    {"smiles": "CO[C@H]1/C=C/O[C@@]2(C)Oc3c(C)c(O)c4c(O)c(c(/C=N/N5CCN(C)CC5)c(O)c4c3C2=O)NC(=O)/C(C)=C\\C=C\\[C@H](C)[C@H](O)[C@@H](C)[C@@H](O)[C@@H](C)[C@H](OC(C)=O)[C@@H]1C", "note": "[rifampin]", "values": [
      {"measurement": "phenotypic cluster (UMAP/HDBScan)", "setting": "72.3-derived HLOs", "value": "Cluster γ"}
    ]},
    {"smiles": "Cc1ccnc2c1NC(=O)c1cccnc1N2C1CC1", "note": "[nevirapine]", "values": [
      {"measurement": "IC50 relative to reported Cmax in patients", "setting": "dispersed HLOs; 72.3 derived HLOs, Cmax ref 53", "value": "over double that of reported Cmax"},
      {"measurement": "phenotypic cluster (UMAP/HDBScan)", "setting": "72.3-derived HLOs", "value": "Cluster γ"}
    ]},
    {"smiles": "Nc1nc2nc[nH]c2c(=S)[nH]1", "note": "[thioguanine]", "values": [
      {"measurement": "phenotypic cluster (UMAP/HDBScan)", "setting": "72.3-derived HLOs", "value": "Cluster α"}
    ]},
    {"smiles": "CO[C@@H]1[C@H](OP(=O)(OC[C@H]2O[C@@H](n3cnc4c(N)ncnc43)C[C@@H]2O)SCOC(=O)OC(C)C)[C@@H](CO)O[C@H]1n1ccc(=O)[nH]c1=O", "note": "(stereo partly shown) [inarigivir soproxil]", "values": [
      {"measurement": "ALT or AST release", "setting": "PaDLOCs [2]", "value": "did not increase ALT or AST release"},
      {"measurement": "albumin production", "setting": "PaDLOCs [2]; [6]", "value": "no effect was observed"},
      {"measurement": "cytotoxicity", "setting": "dispersed HLOs", "value": "negligible cytotoxicity"},
      {"measurement": "toxicity in clinical trials", "setting": "patients", "value": "no clear signs of toxicity"},
      {"measurement": "UMAP morphological clustering", "setting": "PaDLOCs [3]", "value": "clustered with DMSO control"},
      {"measurement": "morphological deviation", "setting": "PaDLOCs [3]", "value": "no morphological deviation from DMSO-treated control"}
    ]},
    {"smiles": "C[C@H](Cn1cnc2c(N)ncnc21)OCP(=O)(O)O", "note": "[tenofovir]", "values": [
      {"measurement": "ALT or AST release", "setting": "PaDLOCs [2]", "value": "did not increase ALT or AST release"},
      {"measurement": "albumin production", "setting": "PaDLOCs [2]; [6]", "value": "no effect was observed"},
      {"measurement": "cytotoxicity", "setting": "dispersed HLOs", "value": "negligible cytotoxicity"},
      {"measurement": "Cmax", "setting": "[4]", "value": "~500", "unit": "nM"},
      {"measurement": "KCNQ10T1 expression", "setting": "PaDLOCs [5]", "value": "overexpression"},
      {"measurement": "RPS10 expression", "setting": "PaDLOCs [5]", "value": "suppressed expression"},
      {"measurement": "GSTP1 expression", "setting": "PaDLOCs [5]", "value": "decreased expression"},
      {"measurement": "DGAT1 expression", "setting": "PaDLOCs [5]", "value": "downregulated"},
      {"measurement": "UMAP morphological clustering", "setting": "PaDLOCs [3]", "value": "clustered with DMSO control"},
      {"measurement": "morphological deviation", "setting": "PaDLOCs [3]", "value": "no morphological deviation from DMSO-treated control"}
    ]},
    {"smiles": "O=P1(N(CCCl)CCCl)NCCCO1", "note": "(stereo not shown) [cyclophosphamide]", "values": [
      {"measurement": "metabolic turnover rate", "setting": "PaDLOCs [1]", "value": "increased rates compared to plate-cultured intact HLOs"}
    ]},
    {"smiles": "O=c1[nH]c(=O)n([C@@H]2O[C@H](CO)[C@@H](O)[C@@H]2F)cc1I", "note": "[FIAU, fialuridine]", "values": [
      {"measurement": "albumin production", "setting": "PaDLOCs [2]; APAP 100 μM, FIAU 10 μM", "value": "diminished"},
      {"measurement": "ALT/AST release and reduced albumin production", "setting": "PHH PaDLOCs", "value": "not significant"},
      {"measurement": "KCNQ10T1 expression", "setting": "PaDLOCs [5]", "value": "overexpression"},
      {"measurement": "RPS10 expression", "setting": "PaDLOCs [5]", "value": "suppressed expression"},
      {"measurement": "GSTP1 expression", "setting": "PaDLOCs [5]", "value": "decreased expression"},
      {"measurement": "DGAT1 expression", "setting": "PaDLOCs [5]", "value": "downregulated"},
      {"measurement": "multidimensional perturbation of cells", "setting": "72.3-derived HLOs; sub-cytotoxic concentrations, Fig. S5 B-C", "value": "diminished mitochondrial mass and lipid accumulation"},
      {"measurement": "confocal phenotype (CellMask, lipid droplets)", "setting": "PaDLOCs [3]; APAP 100 μM, FIAU 10 μM, day 7 of treatment", "value": "high lipid content and a reduction of CellMask staining"}
    ]}
  ]
}
